Assay results from article PMC9607330, “Cell Cycle Arrest and Apoptosis-Inducing Ability of Benzimidazole Derivatives: Design, Synthesis, Docking, and Biological Evaluation” (Molecules, 2022).

How the values were obtained:
[1] = system: MDA-MB-231 cells; assay: MTT antiproliferative assay, MDA-MB-231; conditions: for IC50: read-out: IC50 (μM) MDA-MB231, MTT, MDA-MB-231 (breast), mean ± SD of three experiments; for fold increase in cytotoxicity versus doxorubicin: MDA-MB-231, ratio of IC50 values
Experimental: Doxorubicin was used as a standard anticancer drug.
The cytotoxicity was assessed using the MTT method, according to our previously reported work [32]. The cell lines were purchased from American Type Culture Collection (ATCC).
FBS (10%) and 100 units/mL PS (penicillin/streptomycin) were
supplied to that same media. The cells incubated at 37 °C in a humidified environment with 5%

[2] = system: A549 cells; assay: MTT antiproliferative assay, A549; assay type: cell-based, human; conditions: for IC50: Homo sapiens, MTT, A549 (lung), mean ± SD of three experiments; for times more active than doxorubicin: A549, ratio of IC50 values
Excerpt: (§1) adenocarcinoma) cell lines.
(§2) supplied to that same media.
(§3) carbon dioxide. […] The positive
(§4) (FluoStar Omega (BMG Labtec, Ortenberg, Germany).

[3] = system: SKOV3 cells; assay: MTT antiproliferative assay, SKOV3; assay type: cell-based, human; conditions: for IC50: Homo sapiens, SK-OV-3, MTT, SKOV3 (ovarian), mean ± SD of three experiments; for fold better activity than doxorubicin: SKOV3, ratio of IC50 values
Excerpt: as §1, §2, §3, §4

[4] = target: EGFR kinase (Homo sapiens, UniProt P00533); assay: In vitro EGFR inhibitory activity; assay type: biochemical
Experimental: EGFR inhibitory activity was assayed according to the reported method.

[5] = system: esophageal cancer; conditions: cited from earlier work
[6] = system: hepatocellular carcinoma; conditions: cited from earlier work
[7] = system: non-small cell lung cancer (NSCLC); conditions: cited from earlier work
[8] = system: SKOV3 cells; assay: Apoptosis, annexin V-FITC/PI flow cytometry, SKOV3; assay type: cell-based, human
Experimental: (§5) The apoptosis studies regarding compounds 10 and 13 using annexin V-FITC/PI staining was also examined by flow cytometry.
as §1, §2, §3, §4
(§6) delivered to cancer cells for 48 hours. A549, MDA,MB 231 and SKOV3 cells were then
(§7) Technology (CST) and incubated for 15 minutes. Fluorescence activated cell sorting analysis
(§8) of cell cycle phases for each sample [37].

[9] = system: MDA-MB-231 cells; assay: Cell cycle distribution, propidium iodide flow cytometry, MDA-MB-231; assay type: cell-based, human; conditions: for cell cycle arrest phase: MDA-MB-231; for cell distribution in G1 phase / cell distribution in S phase / cell distribution in G2 phase: MDA-MB-231, treated at IC50 for 48 h; for cell distribution in G1 phase: control 28.51 ± 2.09%; for cell distribution in S phase: control 35.51 ± 2.10%; for cell distribution in G2 phase: control 35.96 ± 1.97%
Experimental: (§9) The most promising compounds (10 and 13) were explored for cell cycle distribution to determine the intracellular mode of action of these compounds. […] In the present study, compounds 10 and 13 arrest different cell cycle phases in A549, MDA-MB 231, and SKOV3 cancer cells. […] However, compound 10 arrests the G2/S phase in both MDA-MB 231 and SKOV3, while it arrests the G1/G2 phases in lung A549 carcinoma.
(§10) The analysis was performed according to our previously published work.
as §1, §2, §3, §4, §6, §7, §8

[10] = system: SKOV3 cells; assay: Cell cycle distribution, propidium iodide flow cytometry, SKOV3; assay type: cell-based, human; conditions: for cell cycle arrest phase: SKOV3; for cell distribution in G1 phase / cell distribution in G2 phase / cell distribution in S phase: SKOV3, treated at IC50 for 48 h; for cell distribution in G1 phase: control 31.03 ± 1.86%; for cell distribution in G2 phase: control 34.23 ± 1.38%; for cell distribution in S phase: control 34.72 ± 1.80%
Experimental: as §9, §10, §1, §2, §3, §4, §6, §7, §8

[11] = system: MDA-MB-231 cells; assay: Apoptosis, annexin V-FITC/PI flow cytometry, MDA-MB-231; assay type: cell-based, human; conditions: for early apoptosis / late apoptosis: MDA-MB-231
Experimental: as §5, §1, §2, §3, §4, §6, §7, §8

[12] = system: A549 cells; assay: Apoptosis, annexin V-FITC/PI flow cytometry, A549; assay type: cell-based, human; conditions: for early apoptosis: A549; for late apoptosis / necrosis: A549, result in words
Experimental: as §5, §1, §2, §3, §4, §6, §7, §8

[13] = system: A549 cells; assay: Cell cycle distribution, propidium iodide flow cytometry, A549; assay type: cell-based, human; conditions: for cell cycle arrest phase: A549; for cell distribution in G2 phase / cell distribution in G1 phase / cell distribution in S phase: A549, treated at IC50 for 48 h; for cell distribution in G2 phase: control 29.13 ± 2.31%; for cell distribution in G1 phase: control 32.88 ± 2.04%; for cell distribution in S phase: control 38.48 ± 3.71%
Experimental: as §9, §10, §1, §2, §3, §4, §6, §7, §8

Sequence of EGFR kinase (P00533 25-1210): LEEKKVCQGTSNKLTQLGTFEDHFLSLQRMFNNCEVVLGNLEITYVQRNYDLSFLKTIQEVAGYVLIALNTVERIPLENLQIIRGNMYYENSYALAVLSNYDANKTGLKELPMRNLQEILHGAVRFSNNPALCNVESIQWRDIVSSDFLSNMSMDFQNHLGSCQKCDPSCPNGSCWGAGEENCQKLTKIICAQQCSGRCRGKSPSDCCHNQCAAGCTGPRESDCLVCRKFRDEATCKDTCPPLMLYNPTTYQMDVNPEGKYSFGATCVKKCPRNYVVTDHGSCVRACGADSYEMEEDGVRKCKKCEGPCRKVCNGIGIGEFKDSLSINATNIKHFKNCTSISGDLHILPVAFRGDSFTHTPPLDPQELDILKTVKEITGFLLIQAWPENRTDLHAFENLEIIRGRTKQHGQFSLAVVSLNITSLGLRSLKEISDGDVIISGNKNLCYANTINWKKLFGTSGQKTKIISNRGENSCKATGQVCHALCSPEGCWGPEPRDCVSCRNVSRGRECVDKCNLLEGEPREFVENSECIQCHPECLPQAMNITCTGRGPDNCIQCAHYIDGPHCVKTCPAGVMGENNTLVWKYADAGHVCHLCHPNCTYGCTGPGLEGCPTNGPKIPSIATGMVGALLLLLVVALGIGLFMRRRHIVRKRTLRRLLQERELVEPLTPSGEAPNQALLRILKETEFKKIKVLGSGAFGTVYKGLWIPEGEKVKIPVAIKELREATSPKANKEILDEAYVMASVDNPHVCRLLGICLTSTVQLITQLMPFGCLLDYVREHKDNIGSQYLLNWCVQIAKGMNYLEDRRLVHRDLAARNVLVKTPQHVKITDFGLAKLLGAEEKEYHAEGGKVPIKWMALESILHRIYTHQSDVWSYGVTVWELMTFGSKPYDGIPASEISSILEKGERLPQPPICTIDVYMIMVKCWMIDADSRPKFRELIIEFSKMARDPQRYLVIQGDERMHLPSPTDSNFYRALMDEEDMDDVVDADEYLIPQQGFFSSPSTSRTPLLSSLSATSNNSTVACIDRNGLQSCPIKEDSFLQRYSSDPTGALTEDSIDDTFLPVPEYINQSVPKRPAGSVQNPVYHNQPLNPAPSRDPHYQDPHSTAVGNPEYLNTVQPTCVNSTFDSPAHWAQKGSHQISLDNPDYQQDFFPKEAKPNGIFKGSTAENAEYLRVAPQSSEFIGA

SMILES: O=C(CSc1nnc(Cn2c(-c3ccc(Cl)cc3Cl)nc3ccccc32)o1)Nc1ccc(Br)cc1 [Compound 15, N-(4-Bromophenyl)-2-[(5-{[2-(2,4-Dichlorophenyl)-1H-benzo[d]imidazol-1-yl]methyl}-1,3,4-oxadiazol-2-yl)thio]acetamide]
- IC50 [1]: 16.4 ± 0.44 µM
- melting point: 220 to 222 °C
- IC50 [2]: 20.6 ± 1.41 µM
- IC50 [3]: 13.7 ± 0.45 µM

SMILES: Cc1ccccc1-n1cc(CSc2nnc(Cn3c(-c4ccc(Cl)cc4Cl)nc4ccccc43)o2)nn1 [Compound 11, 2-{[2-(2,4-Dichlorophenyl)-1H-benzo[d]imidazol-1-yl]methyl}-5-({[1-(o-tolyl)-1H-1,2,3-triazol-4-yl]methyl}thio)-1,3,4-oxadiazole]
- IC50 [1]: 36.7 ± 0.75 µM
- melting point: 152 to 153 °C
- IC50 [2]: 43.8 ± 0.87 µM
- IC50 [3]: 25.7 ± 1.16 µM

SMILES: COc1ccc(NC(=O)CSc2nnc(Cn3c(-c4ccc(Cl)cc4Cl)nc4ccccc43)o2)cc1 [Compound 16, 2-[(5-{[2-(2,4-Dichlorophenyl)-1H-benzo[d]imidazol-1-yl]methyl}-1,3,4-oxadiazol-2-yl)thio]-N-(4-Methoxyphenyl)acetamide]
- IC50 [1]: 10.5 ± 0.88 µM
- melting point: 195 to 197 °C
- IC50 [4]: 1.09 ± 0.011 µM
- IC50 [2]: 7.83 ± 0.35 µM
- IC50 [3]: 8.13 ± 0.28 µM

SMILES: C#Cc1cccc(Nc2ncnc3cc(OCCOC)c(OCCOC)cc23)c1 [Erlotinib, erlotinib]
- cell cycle arrest phase [5]: G1/G0 phase
- cell cycle arrest phase [6]: G1/S checkpoint
- cell cycle arrest phase [7]: G0/G1 phase

SMILES: Fc1ccc(-n2cc(CSc3nnc(Cn4c(-c5ccc(Cl)cc5Cl)nc5ccccc54)o3)nn2)cc1 [Compound 8, 2-{[2-(2,4-Dichlorophenyl)-1H-benzo[d]imidazol-1-yl]methyl}-5-({[1-(4-Fluorophenyl)-1H-1,2,3-triazol-4-yl]methyl}thio)-1,3,4-oxadiazole]
- IC50 [1]: 15.5 ± 1.64 µM
- melting point: 110 to 112 °C
- IC50 [2]: 26.7 ± 1.26 µM
- IC50 [3]: 17.7 ± 0.68 µM

SMILES: COc1cccc2c1C(=O)c1c(O)c3c(c(O)c1C2=O)C[C@@](O)(C(=O)CO)C[C@@H]3O[C@H]1C[C@H](N)[C@H](O)[C@H](C)O1 [doxorubicin, reference compound]
- IC50 [1]: 4.76 ± 0.44 µM
- IC50 [2]: 5.85 ± 0.61 µM
- IC50 [3]: 8.65 ± 0.37 µM

SMILES: COC(=O)c1ccccc1NC(=O)CSc1nnc(Cn2c(-c3ccc(Cl)cc3Cl)nc3ccccc32)o1 [Compound 17, Methyl 2-{2-[(5-{[2-(2,4-Dichlorophenyl)-1H-benzo[d]imidazol-1-yl]methyl}-1,3,4-oxadiazol-2-yl)thio]acetamido}benzoate]
- IC50 [1]: 11.9 ± 0.91 µM
- melting point: 176 to 178 °C
- IC50 [4]: 1.54 ± 0.026 µM
- IC50 [2]: 18 ± 0.87 µM
- IC50 [3]: 12.2 ± 0.35 µM

SMILES: Oc1ccccc1-n1cc(CSc2nnc(Cn3c(-c4ccc(Cl)cc4Cl)nc4ccccc43)o2)nn1 [Compound 10, 2-(4-{[(5-{[2-(2,4-Dichlorophenyl)-1H-benzo[d]imidazol-1-yl]methyl}-1,3,4-oxadiazol-2-yl)thio]methyl}-1H-1,2,3-triazol-1-yl)phenol]
- early apoptosis [8]: 58.5%
- fold increase in cytotoxicity versus doxorubicin [1]: 4.0 fold
- IC50 [1]: 1.18 ± 0.68 µM
- cell cycle arrest phase [9]: S and G2 phases
- cell distribution in G1 phase [9]: 17.58 ± 1.45%
- cell distribution in S phase [9]: 37.82 ± 2.57%
- cell distribution in G2 phase [9]: 44.58 ± 3.03%
- cell cycle arrest phase [10]: G2/S phase
- cell distribution in G1 phase [10]: 16.15 ± 2.11%
- cell distribution in G2 phase [10]: 48.73± 1.89%
- cell distribution in S phase [10]: 35.11 ± 1.21%
- early apoptosis [11]: 69.7%
- late apoptosis [11]: 3.2%
- necrosis ([11]; MDA-MB-231, result in words): without any necrosis
- IC50 [4]: 0.33 ± 0.051 µM
- times more active than doxorubicin [2]: 1.76 times
- IC50 [2]: 3.31 ± 0.14 µM
- early apoptosis [12]: 55.1%
- late apoptosis [12]: no late apoptosis
- necrosis [12]: no late apoptosis or necrosis
- IC50 [3]: 6.98 ± 0.28 µM
- fold better activity than doxorubicin [3]: 1.23 fold
- cell cycle arrest phase [13]: G1 and G2 phases
- cell distribution in G2 phase [13]: 33.01 ± 2.28%
- cell distribution in G1 phase [13]: 34.66 ± 2.80%
- cell distribution in S phase [13]: 32.32 ± 1.51%

SMILES: O=C(CSc1nnc(Cn2c(-c3ccc(Cl)cc3Cl)nc3ccccc32)o1)Nc1ccc(F)cc1F [Compound 14, 2-[(5-{[2-(2,4-Dichlorophenyl)-1H-benzo[d]imidazol-1-yl]methyl}-1,3,4-oxadiazol-2-yl)thio]-N-(2,4-Difluorophenyl)acetamide]
- IC50 [1]: 20.9 ± 0.24 µM
- melting point: 212 to 214 °C
- IC50 [4]: 1.21 ± 0.047 µM
- IC50 [2]: 11.6 ± 0.29 µM
- IC50 [3]: 12.8 ± 0.53 µM

SMILES: Clc1ccc(-c2nc3ccccc3n2Cc2nnc(SCc3cn(-c4ccc(Cl)cc4Cl)nn3)o2)c(Cl)c1 [Compound 12, 2-({[1-(2,4-Dichlorophenyl)-1H-1,2,3-triazol-4-yl]methyl}thio)-5-{[2-(2,4-Dichlorophenyl)-1H-benzo[d]imidazol-1-yl]methyl}-1,3,4-oxadiazole]
- IC50 [1]: 25.2 ± 1.82 µM
- melting point: 100 to 102 °C
- IC50 [2]: 37.1 ± 0.67 µM
- IC50 [3]: 33.6 ± 0.91 µM

SMILES: Clc1ccc(-c2nc3ccccc3n2Cc2nnc(SCc3cn(-c4cccc(Br)c4)nn3)o2)c(Cl)c1 [Compound 9, 2-({[1-(3-Bromophenyl)-1H-1,2,3-triazol-4-yl]methyl}thio)-5-{[2-(2,4-Dichlorophenyl)-1H-benzo[d]imidazol-1-yl]methyl}-1,3,4-oxadiazole]
- IC50 [1]: 10.9 ± 0.58 µM
- melting point: 180 to 182 °C
- IC50 [4]: 0.95 ± 0.023 µM
- IC50 [2]: 17.4 ± 0.54 µM
- IC50 [3]: 13.6 ± 0.71 µM

SMILES: O=C(CSc1nnc(Cn2c(-c3ccc(Cl)cc3Cl)nc3ccccc32)o1)Nc1ccc(F)cc1 [Compound 13, 2-[(5-{[2-(2,4-Dichlorophenyl)-1H-benzo[d]imidazol-1-yl]methyl}-1,3,4-oxadiazol-2-yl)thio]-N-(4-Fluorophenyl)acetamide]
- early apoptosis [8]: 76.2%
- late apoptosis [8]: 21.7%
- fold increase in cytotoxicity versus doxorubicin [1]: 1.64 fold
- IC50 [1]: 2.9 ± 0.53 µM
- cell cycle arrest phase [9]: G1 and S phases
- cell distribution in G1 phase [9]: 34.88 ± 3.09%
- cell distribution in S phase [9]: 41.14 ± 1.34%
- cell distribution in G2 phase [9]: 23.97 ± 2.93%
- cell cycle arrest phase [10]: only the S phase
- cell distribution in G1 phase [10]: 25.38 ± 0.44%
- cell distribution in G2 phase [10]: 28.65 ± 1.73%
- cell distribution in S phase [10]: 45.93 ± 1.78%
- early apoptosis [11]: 80.24%
- late apoptosis [11]: 5.4%
- IC50 [4]: 0.38 ± 0.022 µM
- times more active than doxorubicin [2]: 1.1 times
- IC50 [2]: 5.3 ± 0.44 µM
- early apoptosis [12]: 66.4%
- late apoptosis [12]: no late apoptosis
- necrosis [12]: no late apoptosis or necrosis
- IC50 [3]: 4.35 ± 0.38 µM
- fold better activity than doxorubicin [3]: 1.98 fold
- cell cycle arrest phase [13]: G1 phase
- cell distribution in G2 phase [13]: 24.64 ± 2.52%
- cell distribution in G1 phase [13]: 36.34 ± 2.19%
- cell distribution in S phase [13]: 38.99 ± 1.67%
